Measurements as given in patent publication US20190192427A1, “AZOLE COMPOUND OPHTHALMIC PREPARATION” (BIOTOOL, LLC, priority 2016, published 2019).

Assays:
[1] = Tolerance of eye drops in cataract rats during treatment; type: in vivo, rat; conditions: eye drops three times a day, 10 weeks
Procedure: (§1) After 3 days of modeling, econazole eye drops were administered three times a day including morning, noon, and evening, at intervals of at least 5 hours. Every group was made up of 10 cases of cataract suffering eyes involved in the test. The mode of administration was directly dropping to the eye to ensure that the drug was completely dripped into the eye. Each case of suffering eye receiving treatment was administrated one drop at a time with an amount of about 20 μL, and was continuously administrated for 10 weeks. All cataract suffering eyes in different treatment groups were observed and judged for signs of symptom ease or symptom relief.

[2] = test system: nuclear cataract; assay: Rat sodium selenite (senile/nuclear) cataract model, eye drops, lens opacity phase by slit lamp; type: in vivo, Wistar rats; conditions: 10 suffering eyes per group, about 20 μL three times a day, 10 weeks
Procedure: (§2) Rat model of cataract was made: Wistar rats 12 days after birth were selected, male or female, modeled with sodium selenite (senile cataract), each rat was injected subcutaneously in the back neck according to 20 umol/kg body weight. Acupuncture was used to model adult rats (traumatic cataract).
(§3) The opacity of the lens was observed using a slit lamp, and the lens opacity is generally classified into phase 0-V.
(§4) phase 0—Lens are transparent;
(§5) phase I—The cortex around the lens is scattered in small vacuoles;
(§6) phase II—The cortex around the lens is in ring-shaped dense medium vacuoles;
(§7) phase III—Other parts of cortex are in flaky turbidity;
(§8) phase IV—Lens nucleus and perinuclear cortex are turbid;
(§9) phase V—The lens is completely turbid.
as §1

[3] = test system: traumatic cataract; assay: Rat acupuncture (traumatic) cataract model, eye drops, lens opacity phase by slit lamp; type: in vivo, rats; conditions: 10 suffering eyes per group, about 20 μL three times a day, 10 weeks
Procedure: as §2, §3, §4, §5, §6, §7, §8, §9, §1

SMILES: Clc1ccc(COC(Cn2ccnc2)c2ccc(Cl)cc2Cl)cc1 (stereo not shown) [econazole, Econazole]
- discomfort or ocular allergic reaction throughout the treatment [1]: No rat has discomfort or ocular allergic reaction
- number of eyes in phase 0 [2]: 6
- number of eyes in phase I [2]: 0
- number of eyes in phase II [2]: 0
- number of eyes in phase III [2]: 0
- number of eyes in phase IV [2]: 4
- number of eyes in phase V [2]: 0
- number of eyes in phase 0 [3]: 4
- number of eyes in phase I [3]: 5
- number of eyes in phase II [3]: 1
- number of eyes in phase III [3]: 0
- number of eyes in phase IV [3]: 0
- number of eyes in phase V [3]: 0
